# Where two headings read alike, the source gives them in different places.
# Tests used:
# [1] = tested on: L-DOPA methylation; assay: Animal experiment III: L-DOPA methylation in dopamine-depleted; format: in vivo, rat
# [2] = tested on: kainic acid-induced hippocampal neurodegeneration; assay: Animal experiment IV: kainic acid-induced rat hippocampal injury; format: in vivo; settings: rats
# [3] = tested on: NF-κB; assay: NF-κB-Luc reporter transcriptional activity in glutamate-treated HT22 cells; format: cell-based, mouse; settings: HT22 cells transfected with NF-κB-Luc; 5 mM glutamate, 40 μM (+)-catechin, 8 h
# [4] = tested on: 6-hydroxydopamine-induced neuronal damage; assay: 6-hydroxydopamine-induced neuronal damage model; settings: data not shown
# [5] = tested on: L-DOPA methylation; format: in vivo, rat; settings: rats
# [6] = tested on: L-DOPA methylation; settings: rats; for effect on plasma 3-OMD levels: 400 mg/kg i.p. 2 h before L-DOPA/carbidopa 20/5 mg/kg; for effect on striatal 3-OMD levels / effect on striatal dopamine levels: 400 mg/kg i.p., striatum at 6 h after L-DOPA/carbidopa 20/5 mg/kg
# [7] = tested on: HT22 mouse hippocampal neuronal cells; assay: Glutamate-induced intracellular ROS accumulation; format: cell-based; settings: 5 mM glutamate
# [8] = tested on: HT22 mouse hippocampal neuronal cells; assay: Glutamate-induced oxidative cell death, MTT cell viability; format: cell-based; settings: 5 mM glutamate, 24 h, co-treatment
# [9] = in vivo; settings: rat, ip, 400 mg/kg
# [10] = target: T1, human liver catechol-O-methyltransferase (COMT) (Homo sapiens, UniProt P21964); assay: in vitro O-methylation of L-DOPA catalyzed by human liver cytosolic COMT; format: biochemical
# T1 sequence (P21964 1-221 isoform P21964-2): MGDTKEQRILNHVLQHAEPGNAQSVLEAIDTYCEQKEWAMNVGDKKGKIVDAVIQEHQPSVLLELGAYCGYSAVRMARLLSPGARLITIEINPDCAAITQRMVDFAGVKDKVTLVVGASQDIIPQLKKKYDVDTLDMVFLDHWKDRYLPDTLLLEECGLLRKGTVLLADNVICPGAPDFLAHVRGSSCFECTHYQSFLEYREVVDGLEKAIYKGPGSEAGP
# [11] = tested on: 6-hydroxydopamine-induced neurotoxicity; settings: ref Leaver et al., 2009; cited from earlier work
# [12] = rats, reserpine 5 mg/kg i.p. 18-20 h before
# [13] = reserpinized rats, co-treatment with L-DOPA/carbidopa 20/20 mg/kg
smiles,measurement,setting,value
"COC(=O)[C@H]1[C@H]2C[C@@H]3c4[nH]c5cc(OC)ccc5c4CCN3C[C@H]2C[C@@H](OC(=O)c2cc(OC)c(OC)c(OC)c2)[C@@H]1OC [reserpine, reference compound]",decrease of striatal dopamine levels compared to normal control animals,[1]; [12],over 80%
same,striatal dopamine levels relative to non-reserpinized control rats,[1]; [12],approximately 20%
Oc1cc(O)c2c(c1)O[C@H](c1ccc(O)c(O)c1)[C@@H](O)C2 [(+)-catechin],kainic acid-induced increase in GFAP expression in astrocytes,"[2]; (+)-catechin 400 mg/kg 30 min before i.c.v. kainic acid, 24 h, CA3",reduced
same,effect on kainic acid-induced seizure behavior,[2]; (+)-catechin 30 min before i.c.v. kainic acid,no appreciable behavioral differences
same,effect on transcriptional activity of NF-κB,[3],significantly attenuated
same,protective effect in 6-hydroxydopamine-induced neuronal damage model,[4],did not show any appreciable protective effect
same,time required to reach maximal L-DOPA plasma concentration,"[5]; (+)-catechin 400 mg/kg 2 h before L-DOPA/carbidopa 20/20 mg/kg, vs control",modestly shifted to the right
same,effect on striatal 3-OMD levels,[5]; L-DOPA/carbidopa 20/20 mg/kg,markedly reduced
same,effect on striatal dopamine levels,[5]; L-DOPA/carbidopa 20/20 mg/kg,not significantly affected
same,effect on plasma 3-OMD levels,[6],significantly reduced
same,effect on striatal 3-OMD levels,[6],significantly reduced
same,effect on striatal dopamine levels,[6],only slightly changed
same,effect on striatal 3-OMD levels,[1]; [13],markedly reduced
same,effect on striatal dopamine levels,[1]; [13],restored to levels comparable to those in normal rats
same,effect on glutamate-induced accumulation of intracellular ROS,[7],reduced
same,effect on glutamate-induced cell death (cell viability),[8],abrogated cell death in a concentration-dependent manner
O=c1c(O)c(-c2ccc(O)c(O)c2)oc2cc(O)cc(O)c12 [quercetin],concentration at 30 min,[9],12.6 ± 0.1 µM
same,IC50,[10],1.9 ± 0.4 µM
same,effect on plasma 3-OMD levels,[6],did not have a similar effect
same,effect on striatal 3-OMD levels,[6],no significant change
same,effect on striatal dopamine levels,[6],no significant change
Oc1cc(O)c2c(c1)O[C@H](c1ccc(O)c(O)c1)[C@H](O)C2 [(−)-epicatechin],concentration at 30 min,[9],88.6 ± 39.2 µM
same,IC50,[10],10.7 ± 6.7 µM
same,effect on plasma 3-OMD levels,[6],did not have a similar effect
same,effect on striatal 3-OMD levels,[6],no significant change
same,effect on striatal dopamine levels,[6],no significant change
"O=C(O[C@@H]1Cc2c(O)cc(O)cc2O[C@@H]1c1cc(O)c(O)c(O)c1)c1cc(O)c(O)c(O)c1 [EGCG, (−)-epigallocatechin-3-gallate]",effect in 6-hydroxydopamine-induced neurotoxicity model,[11],ineffective

# Reference: article PMC3618674 (Brain research, 2012)
